According to patent US20250129027A1 (APOGEE PHARMACEUTICALS, INC., priority 2023, published 2025):

Tests used:
human recombinant FAAH = human recombinant FAAH (Homo sapiens (Human), UniProt O00519); assay: In vitro inhibition of FAAH activity (fluorescent inhibitor screening kit, AMC arachidonoyl amide); format: biochemical; conditions: human recombinant FAAH; read-out: Inhibition on FAAH activity (IC50)
Source text: The inhibitory effect of compounds of Formula (I-IV) on the activity of human recombinant FAAH was studied using a commercial inhibitor screening kit (Cayman Chemicals, Godlewski et al., 2010 [19]). In brief, FAAH hydrolyzes AMC arachidonoyl amide resulting in the release of the fluorescent product, while the inhibitor will inhibit the FAAH activity and thus reduce the fluorescent signal. The resulting fluorophore can be analyzed using an excitation wavelength of 340-360 nm and an emission wavelength of 450-465 nm by a plate reader (Synergy H1, Biotek). Inhibition is calculated as a percentage of the treated sample over the non-treated control based on the signal values, and where possible, a range of concentrations of compounds was tested to find the IC50 values (i.e. the concentration of compound that inhibited 50% FAAH activity).

human recombinant MAGL = human recombinant MAGL (Homo sapiens (Human), UniProt Q99685); assay: In vitro inhibition of MAGL activity (inhibitor screening kit, 4-nitrophenylacetate); format: biochemical; conditions: human recombinant MAGL
Chain of human recombinant MAGL (Q99685 whole entry): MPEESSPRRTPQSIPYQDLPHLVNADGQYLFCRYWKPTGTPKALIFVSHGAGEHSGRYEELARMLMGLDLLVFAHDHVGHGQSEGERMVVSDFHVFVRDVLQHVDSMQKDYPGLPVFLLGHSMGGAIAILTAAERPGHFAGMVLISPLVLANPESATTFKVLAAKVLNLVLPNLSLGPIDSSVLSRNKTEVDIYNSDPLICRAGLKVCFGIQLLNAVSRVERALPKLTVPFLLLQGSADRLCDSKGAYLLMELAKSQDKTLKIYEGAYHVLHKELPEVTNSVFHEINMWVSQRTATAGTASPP
Method: The inhibitory effect of the compounds on activity of human recombinant MAGL was also studied using a commercial inhibitor screening kit (Cayman Chemicals). In brief, MAGL hydrolyzes 4-nitrophenylacetate resulting in a yellow product, 4-nitrophenol with an absorbance at 405-412 nm, while the inhibitor will inhibit the MAGL activity and thus reduce the yellow signal. The absorbance of the yellow product can be analyzed using the plate reader. Inhibition is calculated as a percentage of the treated sample over the non-treated MAGL control based on the signal values.

Chain of human recombinant FAAH (O00519 whole entry): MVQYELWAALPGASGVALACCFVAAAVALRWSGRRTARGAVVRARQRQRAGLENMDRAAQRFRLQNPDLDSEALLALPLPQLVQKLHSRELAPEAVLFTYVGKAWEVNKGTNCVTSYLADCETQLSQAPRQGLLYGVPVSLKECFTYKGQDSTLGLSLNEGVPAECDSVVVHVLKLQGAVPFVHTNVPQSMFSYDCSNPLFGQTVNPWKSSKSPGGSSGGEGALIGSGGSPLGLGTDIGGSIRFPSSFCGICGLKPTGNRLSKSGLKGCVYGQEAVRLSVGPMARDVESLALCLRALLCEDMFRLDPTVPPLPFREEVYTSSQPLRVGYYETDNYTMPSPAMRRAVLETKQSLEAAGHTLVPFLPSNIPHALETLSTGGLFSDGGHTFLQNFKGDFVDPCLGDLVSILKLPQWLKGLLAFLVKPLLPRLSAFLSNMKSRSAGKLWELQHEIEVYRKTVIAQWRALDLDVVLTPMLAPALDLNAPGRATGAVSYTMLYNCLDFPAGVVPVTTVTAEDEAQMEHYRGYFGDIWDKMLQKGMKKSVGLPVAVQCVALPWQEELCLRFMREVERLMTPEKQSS

Row | Compound | IC50 (human recombinant FAAH) | IC50 (human recombinant MAGL)
1 | O=C(NC1CCCCCC1)Oc1cccc(-c2cncc(-c3ccco3)c2)c1 [Example 52, 3-(5-(furan-2-yl)pyridin-3-yl)phenyl cycloheptylcarbamate] | 10 to 100 nM | ~10000 nM
2 | CCCCCCCCNC(=O)Oc1ccc(OC)c(-c2cncc(-c3ccco3)c2)c1 [Example 53, 3-(5-(furan-2-yl)pyridin-3-yl)-4-methoxyphenyl octylcarbamate] | 10 to 100 nM | ~10000 nM
3 | COc1ccc(OC(=O)NCC2CCCCC2)cc1-c1cncc(-c2ccco2)c1 [Example 54, 3-(5-(furan-2-yl)pyridin-3-yl)-4-methoxyphenyl (cyclohexylmethyl)carbamate] | 100 to 1000 nM | ~10000 nM
4 | COc1ccc(OC(=O)NCc2ccccc2)cc1-c1cncc(-c2ccco2)c1 [Example 55, 3-(5-(furan-2-yl)pyridin-3-yl)-4-methoxyphenyl benzylcarbamate] | ~1000 nM | ~10000 nM
5 | COc1ccc(OC(=O)NC2CCCC2)cc1-c1cncc(-c2ccco2)c1 [Example 56, 3-(5-(furan-2-yl)pyridin-3-yl)-4-methoxyphenyl cyclopentylcarbamate] | 100 to 1000 nM | > 10000 nM
6 | COc1ccc(OC(=O)NC2CCCCC2)cc1-c1cncc(-c2ccco2)c1 [Example 57, 3-(5-(furan-2-yl)pyridin-3-yl)-4-methoxyphenyl cyclohexylcarbamate] | 100 to 1000 nM | > 10000 nM
7 | COc1ccc(OC(=O)NC2CCCCCC2)cc1-c1cncc(-c2ccco2)c1 [Example 58, 3-(5-(furan-2-yl)pyridin-3-yl)-4-methoxyphenyl cycloheptylcarbamate] | 100 to 1000 nM | > 10000 nM
8 | CCCCCCCCNC(=O)Oc1cccc(-c2cncc(-c3cccs3)c2)c1 [Example 59, 3-(5-(thiophen-2-yl)pyridin-3-yl)phenyl octylcarbamate] | 10 to 100 nM | > 10000 nM
9 | O=C(NCC1CCCCC1)Oc1cccc(-c2cncc(-c3cccs3)c2)c1 [Example 60, 3-(5-(thiophen-2-yl)pyridin-3-yl)phenyl (cyclohexylmethyl)carbamate] | 10 to 100 nM | > 10000 nM
10 | O=C(NCc1ccccc1)Oc1cccc(-c2cncc(-c3cccs3)c2)c1 [Example 61, 3-(5-(thiophen-2-yl)pyridin-3-yl)phenyl benzylcarbamate] | ~100 nM | > 10000 nM
11 | O=C(NC1CCCC1)Oc1cccc(-c2cncc(-c3cccs3)c2)c1 [Example 62, 3-(5-(thiophen-2-yl)pyridin-3-yl)phenyl cyclopentylcarbamate] | 10 to 100 nM | ~10000 nM
12 | O=C(NC1CCCCC1)Oc1cccc(-c2cncc(-c3cccs3)c2)c1 [Example 63, 3-(5-(thiophen-2-yl)pyridin-3-yl)phenyl cyclohexylcarbamate] | 10 to 100 nM | > 10000 nM
13 | COc1ccc(OC(=O)NCC2CCCCC2)cc1-c1cncc(-c2cccs2)c1 [Example 66, 4-methoxy-3-(5-(thiophen-2-yl)pyridin-3-yl)phenyl (cyclohexylmethyl)carbamate] | 100 to 1000 nM | ~10000 nM
14 | COc1ccc(OC(=O)NCc2ccccc2)cc1-c1cncc(-c2cccs2)c1 [Example 67, 4-methoxy-3-(5-(thiophen-2-yl)pyridin-3-yl)phenyl benzylcarbamate] | > 1000 nM | > 10000 nM
15 | COc1ccc(OC(=O)NC2CCCC2)cc1-c1cncc(-c2cccs2)c1 [Example 68, 4-methoxy-3-(5-(thiophen-2-yl)pyridin-3-yl)phenyl cyclopentylcarbamate] | 100 to 1000 nM | ~10000 nM
16 | COc1ccc(OC(=O)NC2CCCCC2)cc1-c1cncc(-c2cccs2)c1 [Example 69, 4-methoxy-3-(5-(thiophen-2-yl)pyridin-3-yl)phenyl cyclohexylcarbamate] | 100 to 1000 nM | > 10000 nM
17 | COc1ccc(OC(=O)NC2CCCCCC2)cc1-c1cncc(-c2cccs2)c1 [Example 70, 4-methoxy-3-(5-(thiophen-2-yl)pyridin-3-yl)phenyl cycloheptylcarbamate] | 100 to 1000 nM | > 10000 nM
18 | CCCCCNC(=O)Oc1cccc(-c2cncc(-c3ncco3)c2)c1 [Example 71, 3-(5-(oxazol-2-yl)pyridin-3-yl)phenyl pentylcarbamate] | 10 to 1000 nM | > 10000 nM
19 | CCCCCCCNC(=O)Oc1cccc(-c2cncc(-c3ncco3)c2)c1 [Example 72, 3-(5-(oxazol-2-yl)pyridin-3-yl)phenyl heptylcarbamate] | 1 to 10 nM | > 1000 nM

Row | Compound | IC50 (human recombinant FAAH) | IC50 (human recombinant MAGL)
20 | CCCCCCCCNC(=O)Oc1cccc(-c2cncc(-c3ncco3)c2)c1 [Example 73, 3-(5-(oxazol-2-yl)pyridin-3-yl)phenyl octylcarbamate] | 1 to 10 nM | > 10000 nM
21 | O=C(NCC1CCCCC1)Oc1cccc(-c2cncc(-c3ncco3)c2)c1 [Example 74, 3-(5-(oxazol-2-yl)pyridin-3-yl)phenyl (cyclohexylmethyl)carbamate] | 10 to 100 nM | > 1000 nM
22 | O=C(NC1CCCC1)Oc1cccc(-c2cncc(-c3ncco3)c2)c1 [Example 75, 3-(5-(oxazol-2-yl)pyridin-3-yl)phenyl cyclopentylcarbamate] | 10 to 1000 nM | > 10000 nM
23 | O=C(NC1CCCCC1)Oc1cccc(-c2cncc(-c3ncco3)c2)c1 [Example 76, 3-(5-(oxazol-2-yl)pyridin-3-yl)phenyl cyclohexylcarbamate] | 10 to 1000 nM | 1000 to 10000 nM
24 | O=C(NC12CC3CC(CC(C3)C1)C2)Oc1cccc(-c2cncc(-c3ncco3)c2)c1 [Example 77, 3-(5-(oxazol-2-yl)pyridin-3-yl)phenyl ((1s,3s)-adamantan-1-yl)carbamate] | > 1000 nM | > 10000 nM
25 | CCCCCCCCNC(=O)Oc1ccc(OC)c(-c2cncc(-c3ncco3)c2)c1 [Example 78, 4-methoxy-3-(5-(oxazol-2-yl)pyridin-3-yl)phenyl octylcarbamate] | 10 to 100 nM | 1000 to 10000 nM
26 | COc1ccc(OC(=O)NC2CCCC2)cc1-c1cncc(-c2ncco2)c1 [Example 80, 4-methoxy-3-(5-(oxazol-2-yl)pyridin-3-yl)phenyl cyclopentylcarbamate] | 10 to 100 nM | > 10000 nM
27 | COc1ccc(OC(=O)NC2CCCCC2)cc1-c1cncc(-c2ncco2)c1 [Example 81, 4-methoxy-3-(5-(oxazol-2-yl)pyridin-3-yl)phenyl cyclohexylcarbamate] | 10 to 100 nM | > 10000 nM
28 | COc1ccc(OC(=O)NC2CCC(C)CC2)cc1-c1cncc(-c2ncco2)c1 (stereo not shown) [Example 82, 4-methoxy-3-(5-(oxazol-2-yl)pyridin-3-yl)phenyl (4-methylcyclohexyl)carbamate] | 100 to 1000 nM | > 10000 nM
29 | CCCCCCCCNC(=O)Oc1cc(-c2cncc(-c3ncco3)c2)ccc1OC [Example 84, 2-methoxy-5-(5-(oxazol-2-yl)pyridin-3-yl)phenyl octylcarbamate] | 100 to 1000 nM | ~10000 nM
30 | O=C(NC1CCCC1)Oc1ccc(F)c(-c2cncc(-c3ncco3)c2)c1 [Example 85, 4-fluoro-3-(5-(oxazol-2-yl)pyridin-3-yl)phenyl cyclopentylcarbamate] | 10 to 100 nM | > 10000 nM
31 | CC1CCC(NC(=O)Oc2ccc(F)c(-c3cncc(-c4ncco4)c3)c2)CC1 (stereo not shown) [Example 86, 4-fluoro-3-(5-(oxazol-2-yl)pyridin-3-yl)phenyl (4-methylcyclohexyl)carbamate] | 10 to 100 nM | > 10000 nM
32 | O=C(NC1CCCCC1)Oc1ccc(OC(F)(F)F)c(-c2cncc(-c3ncco3)c2)c1 [Example 89, 3-(5-(oxazol-2-yl)pyridin-3-yl)-4-(trifluoromethoxy)phenyl cyclohexylcarbamate] | 100 to 1000 nM | > 10000 nM
33 | CC1CCC(NC(=O)Oc2ccc(OC(F)(F)F)c(-c3cncc(-c4ncco4)c3)c2)CC1 (stereo not shown) [Example 90, 3-(5-(oxazol-2-yl)pyridin-3-yl)-4-(trifluoromethoxy)phenyl (4-methylcyclohexyl)carbamate] | 100 to 1000 nM | > 1000 nM
34 | CCCCCCCCNC(=O)Oc1cc(-c2cncc(-c3ncco3)c2)ccc1C [Example 92, 2-methyl-5-(5-(oxazol-2-yl)pyridin-3-yl)phenyl octylcarbamate] | 100 to 1000 nM | > 10000 nM
35 | Cc1ccc(-c2cncc(-c3ncco3)c2)cc1OC(=O)NCC1CCCCC1 [Example 93, 2-methyl-5-(5-(oxazol-2-yl)pyridin-3-yl)phenyl (cyclohexylmethyl)carbamate] | > 1000 nM | 1000 to 10000 nM
36 | Cc1ccc(-c2cncc(-c3ncco3)c2)cc1OC(=O)NCc1ccccc1 [Example 94, 2-methyl-5-(5-(oxazol-2-yl)pyridin-3-yl)phenyl benzylcarbamate] | > 1000 nM | > 1000 nM
37 | Cc1ccc(-c2cncc(-c3ncco3)c2)cc1OC(=O)NC1CCCCC1 [Example 95, 2-methyl-5-(5-(oxazol-2-yl)pyridin-3-yl)phenyl cyclohexylcarbamate] | > 1000 nM | > 1000 nM
38 | Cc1ccc(-c2cncc(-c3ncco3)c2)cc1OC(=O)NC1CCC(C)CC1 (stereo not shown) [Example 96, 2-methyl-5-(5-(oxazol-2-yl)pyridin-3-yl)phenyl (4-methylcyclohexyl)carbamate] | > 1000 nM | > 10000 nM
